# Source: ChEMBL document CHEMBL4715821, “Discovery of 4-ethoxy-7H-pyrrolo[2,3-d]pyrimidin-2-amines as potent, selective and orally bioavailable LRRK2 inhibitors” (Bioorg Med Chem Lett, 2018)
# Columns and labels:
# [1] = target: LIM domain kinase 1 (Homo sapiens) (UniProt P53667); test: Inhibition of wild-type human full length LIMK1 (M1 to D647 residues) expressed in bacterial expression system assessed as residual activity at 1 uM by Kinomescan method relative to control
# [2] = target: Serine/threonine-protein kinase Nek7 (Homo sapiens) (UniProt Q8TDX7); test: Inhibition of wild-type human full length NEK7 (M1 to S302 residues) expressed in bacterial expression system assessed as residual activity at 1 uM by Kinomescan method relative to control
# [3] = target: Serine/threonine-protein kinase PAK 5 (Homo sapiens) (UniProt Q9P286); test: Inhibition of PAK5 (unknown origin) assessed as residual activity at 1 uM by Kinomescan method relative to control
# [4] = In vivo inhibition of LRRK2 in Han-Wistar rat assessed as reduction in Ser935 phosphorylation in kidney at 10 to 100 mg/kg, po by Western blot analysis; assay type: functional; set-up: scale not given: the % may be the effect or the level left; conditions: dose 10-100 mg/kg
# [5] = target: Ephrin type-A receptor 4 (Homo sapiens) (UniProt P54764); test: Inhibition of wild-type human partial length EPHA4 (T601 to R897 residues) expressed in bacterial expression system assessed as residual activity at 1 uM by Kinomescan method relative to control
# [6] = target: Myosin-IIIb (Homo sapiens) (UniProt Q8WXR4); test: Inhibition of wild-type human partial length MYO3B (M1 to D357 residues) expressed in bacterial expression system assessed as residual activity at 1 uM by Kinomescan method relative to control
# [7] = target: Tyrosine-protein kinase CSK (Homo sapiens) (UniProt P41240); test: Inhibition of wild-type human full length CSK (M1 to L450 residues) expressed in bacterial expression system assessed as residual activity at 1 uM by Kinomescan method relative to control
# [8] = target: CDK3/Cyclin E (Homo sapiens) (UniProt P24864+Q00526); test: Inhibition of wild-type human full length CDK3 (M1 to H305 residues)/Cyclin E expressed in bacterial expression system at 1 uM by Kinomescan method; set-up: scale not given: the % may be the effect or the level left
# [9] = target: Proto-oncogene tyrosine-protein kinase Src (Homo sapiens) (UniProt P12931); test: Inhibition of wild-type human partial length c-Src (M1 to L450 residues) expressed in bacterial expression system assessed as residual activity at 1 uM by Kinomescan method relative to control
# [10] = target: Serine/threonine-protein kinase 24 (Homo sapiens) (UniProt Q9Y6E0); test: Inhibition of wild-type human partial length MST3 (A30 to S311 residues) expressed in bacterial expression system assessed as residual activity at 1 uM by Kinomescan method relative to control
# [11] = target: Serine/threonine-protein kinase Nek1 (Homo sapiens) (UniProt Q96PY6); test: Inhibition of wild-type human partial length NEK1 (M1 to K278 residues) expressed in bacterial expression system assessed as residual activity at 1 uM by Kinomescan method relative to control
# [12] = target: Protein kinase C gamma type (Homo sapiens) (UniProt P05129); test: Inhibition of PKCgamma (unknown origin) assessed as residual activity at 1 uM by Kinomescan method relative to control
# [13] = target: Serine/threonine-protein kinase WNK2 (Homo sapiens) (UniProt Q9Y3S1); test: Inhibition of wild-type human partial length WNK2 (V47 to D482 residues) expressed in mammalian expression system assessed as residual activity at 1 uM by Kinomescan method relative to control
# [14] = target: Casein kinase I isoform alpha-like (Homo sapiens) (UniProt Q8N752); test: Inhibition of CK1a1L (unknown origin) assessed as residual activity at 1 uM by Kinomescan method relative to control
# [15] = target: Non-receptor tyrosine-protein kinase TYK2 (Homo sapiens) (UniProt P29597); test: Inhibition of wild-type human partial length TYK2 expressed in mammalian expression system assessed as residual activity at 1 uM by Kinomescan method relative to control
# [16] = target: Serine/threonine-protein kinase PLK1 (Homo sapiens) (UniProt P53350); test: Inhibition of wild-type human partial length PLK1 (A33 to F325 residues) expressed in mammalian expression system assessed as residual activity at 1 uM by Kinomescan method relative to control
# [17] = target: Ribosomal protein S6 kinase alpha-6 (Homo sapiens) (UniProt Q9UK32); test: Inhibition of wild-type human partial length N-terminal RSK4 kinase domain 1 (M1 to E397 residues) expressed in mammalian expression system assessed as residual activity at 1 uM by Kinomescan method relative to control
# [18] = target: Serine/threonine-protein kinase VRK1 (Homo sapiens) (UniProt Q99986); test: Inhibition of VRK1 (unknown origin) assessed as residual activity at 1 uM by Kinomescan method relative to control
# [19] = target: Maternal embryonic leucine zipper kinase (Homo sapiens) (UniProt Q14680); test: Inhibition of wild-type human full length MELK (M1 to V651 residues) expressed in bacterial expression system assessed as residual activity at 1 uM by Kinomescan method relative to control
# [20] = target: Ephrin type-A receptor 3 (Homo sapiens) (UniProt P29320); test: Inhibition of wild-type human partial length EPHA3 (D604 to K889 residues) expressed in bacterial expression system assessed as residual activity at 1 uM by Kinomescan method relative to control
# [21] = target: SRSF protein kinase 1 (Homo sapiens) (UniProt Q96SB4); test: Inhibition of wild-type human full length SRPK1 (M1 to S655 residues) expressed in bacterial expression system assessed as residual activity at 1 uM by Kinomescan method relative to control
# [22] = target: Mitogen-activated protein kinase 1 (Homo sapiens) (UniProt P28482); test: Inhibition of wild-type human full length ERK2 (M1 to S360 residues) expressed in bacterial expression system assessed as residual activity at 1 uM by Kinomescan method relative to control
# [23] = Permeability ratio across apical side to basolateral side in MDCK2 cells transfected with Bacmam virus containing human BCRP at 3 uM after 90 mins in presence or absence of GF120918 by transwell assay; assay type: ADME, cell-based, Canis lupus familiaris; conditions: dog, mdck-ii, 1.5 h
# [24] = target: Receptor tyrosine-protein kinase erbB-2 (Homo sapiens) (UniProt P04626); test: Inhibition of wild-type human partial length ERBB2 (K646 to V1225 residues) expressed in mammalian expression system assessed as residual activity at 1 uM by Kinomescan method relative to control
# [25] = target: Phosphorylase b kinase gamma catalytic chain, liver/testis isoform (Homo sapiens) (UniProt P15735); test: Inhibition of wild-type human partial length PHKG2 (M1 to W300 residues) expressed in bacterial expression system assessed as residual activity at 1 uM by Kinomescan method relative to control
# [26] = target: Mitogen-activated protein kinase kinase kinase 12 (Homo sapiens) (UniProt Q12852); test: Inhibition of wild-type human full length DLK (M1 to P859 residues) expressed in mammalian expression system assessed as residual activity at 1 uM by Kinomescan method relative to control
# [27] = target: Protein kinase C iota type (Homo sapiens) (UniProt P41743); test: Inhibition of PKCiota (unknown origin) assessed as residual activity at 1 uM by Kinomescan method relative to control
# Protein kinase C iota type (Homo sapiens), sequence (P41743 whole entry): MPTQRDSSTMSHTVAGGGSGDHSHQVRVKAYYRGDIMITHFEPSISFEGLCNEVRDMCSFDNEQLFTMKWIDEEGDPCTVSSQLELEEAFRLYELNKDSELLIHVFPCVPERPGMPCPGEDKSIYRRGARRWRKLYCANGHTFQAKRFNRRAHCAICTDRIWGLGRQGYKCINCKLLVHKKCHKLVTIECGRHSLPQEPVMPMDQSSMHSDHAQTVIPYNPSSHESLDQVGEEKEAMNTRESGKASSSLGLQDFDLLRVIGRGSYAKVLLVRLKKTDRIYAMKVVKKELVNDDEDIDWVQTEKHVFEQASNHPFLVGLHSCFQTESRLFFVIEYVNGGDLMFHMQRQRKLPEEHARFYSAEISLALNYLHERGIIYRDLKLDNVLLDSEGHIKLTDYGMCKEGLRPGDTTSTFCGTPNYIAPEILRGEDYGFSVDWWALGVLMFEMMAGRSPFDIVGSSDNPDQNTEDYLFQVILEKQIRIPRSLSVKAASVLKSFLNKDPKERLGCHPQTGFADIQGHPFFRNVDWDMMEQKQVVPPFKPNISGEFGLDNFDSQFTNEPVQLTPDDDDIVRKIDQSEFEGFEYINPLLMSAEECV
# Ephrin type-A receptor 3 (Homo sapiens), sequence (P29320 whole entry, the tested form may be a part): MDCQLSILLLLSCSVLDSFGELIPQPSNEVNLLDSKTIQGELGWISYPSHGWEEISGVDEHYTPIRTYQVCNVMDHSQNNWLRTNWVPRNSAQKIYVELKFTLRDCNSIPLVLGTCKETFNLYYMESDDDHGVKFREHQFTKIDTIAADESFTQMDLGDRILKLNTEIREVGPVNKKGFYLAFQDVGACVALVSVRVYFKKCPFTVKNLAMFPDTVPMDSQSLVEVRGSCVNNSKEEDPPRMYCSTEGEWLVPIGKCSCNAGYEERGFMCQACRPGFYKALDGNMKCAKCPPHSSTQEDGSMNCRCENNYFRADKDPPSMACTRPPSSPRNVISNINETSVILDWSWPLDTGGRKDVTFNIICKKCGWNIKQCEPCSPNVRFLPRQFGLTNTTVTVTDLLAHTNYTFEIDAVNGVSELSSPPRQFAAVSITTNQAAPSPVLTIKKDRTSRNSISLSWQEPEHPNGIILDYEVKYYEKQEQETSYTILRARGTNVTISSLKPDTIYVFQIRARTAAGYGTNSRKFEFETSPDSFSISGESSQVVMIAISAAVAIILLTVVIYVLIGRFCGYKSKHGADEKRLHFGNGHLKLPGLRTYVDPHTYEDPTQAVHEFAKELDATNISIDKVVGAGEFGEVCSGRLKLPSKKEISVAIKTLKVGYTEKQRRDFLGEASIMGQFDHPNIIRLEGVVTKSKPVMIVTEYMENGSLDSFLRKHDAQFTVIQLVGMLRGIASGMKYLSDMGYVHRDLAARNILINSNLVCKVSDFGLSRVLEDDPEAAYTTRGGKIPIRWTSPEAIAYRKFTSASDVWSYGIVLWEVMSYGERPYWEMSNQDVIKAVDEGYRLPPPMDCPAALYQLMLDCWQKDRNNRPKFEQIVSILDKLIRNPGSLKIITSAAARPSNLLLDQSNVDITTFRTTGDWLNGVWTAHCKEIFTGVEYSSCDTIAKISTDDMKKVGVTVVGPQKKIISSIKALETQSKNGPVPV
# CDK3/Cyclin E (Homo sapiens), sequence (P24864 whole entry, looked up, the tested form may be a part): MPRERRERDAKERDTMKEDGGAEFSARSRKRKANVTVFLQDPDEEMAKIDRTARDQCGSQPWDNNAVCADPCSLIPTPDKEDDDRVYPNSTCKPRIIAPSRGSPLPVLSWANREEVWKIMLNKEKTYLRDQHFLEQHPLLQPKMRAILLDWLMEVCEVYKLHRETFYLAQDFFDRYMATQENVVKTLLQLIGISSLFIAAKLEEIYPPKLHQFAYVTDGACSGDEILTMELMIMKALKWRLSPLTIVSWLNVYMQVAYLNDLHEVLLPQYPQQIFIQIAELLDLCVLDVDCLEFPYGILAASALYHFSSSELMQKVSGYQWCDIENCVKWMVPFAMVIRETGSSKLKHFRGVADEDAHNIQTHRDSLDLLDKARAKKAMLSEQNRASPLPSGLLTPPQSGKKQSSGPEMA
# CDK3/Cyclin E (Homo sapiens), sequence (Q00526 whole entry, looked up, the tested form may be a part): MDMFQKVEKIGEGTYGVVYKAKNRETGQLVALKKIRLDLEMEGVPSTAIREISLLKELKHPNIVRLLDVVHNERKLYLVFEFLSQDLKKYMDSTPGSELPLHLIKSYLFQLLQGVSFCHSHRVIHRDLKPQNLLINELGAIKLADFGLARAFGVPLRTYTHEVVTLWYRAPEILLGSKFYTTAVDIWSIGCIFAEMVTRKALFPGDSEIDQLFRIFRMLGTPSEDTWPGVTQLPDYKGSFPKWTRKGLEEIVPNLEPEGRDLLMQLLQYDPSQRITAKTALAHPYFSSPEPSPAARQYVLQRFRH
# Myosin-IIIb (Homo sapiens), sequence (Q8WXR4 whole entry, the tested form may be a part): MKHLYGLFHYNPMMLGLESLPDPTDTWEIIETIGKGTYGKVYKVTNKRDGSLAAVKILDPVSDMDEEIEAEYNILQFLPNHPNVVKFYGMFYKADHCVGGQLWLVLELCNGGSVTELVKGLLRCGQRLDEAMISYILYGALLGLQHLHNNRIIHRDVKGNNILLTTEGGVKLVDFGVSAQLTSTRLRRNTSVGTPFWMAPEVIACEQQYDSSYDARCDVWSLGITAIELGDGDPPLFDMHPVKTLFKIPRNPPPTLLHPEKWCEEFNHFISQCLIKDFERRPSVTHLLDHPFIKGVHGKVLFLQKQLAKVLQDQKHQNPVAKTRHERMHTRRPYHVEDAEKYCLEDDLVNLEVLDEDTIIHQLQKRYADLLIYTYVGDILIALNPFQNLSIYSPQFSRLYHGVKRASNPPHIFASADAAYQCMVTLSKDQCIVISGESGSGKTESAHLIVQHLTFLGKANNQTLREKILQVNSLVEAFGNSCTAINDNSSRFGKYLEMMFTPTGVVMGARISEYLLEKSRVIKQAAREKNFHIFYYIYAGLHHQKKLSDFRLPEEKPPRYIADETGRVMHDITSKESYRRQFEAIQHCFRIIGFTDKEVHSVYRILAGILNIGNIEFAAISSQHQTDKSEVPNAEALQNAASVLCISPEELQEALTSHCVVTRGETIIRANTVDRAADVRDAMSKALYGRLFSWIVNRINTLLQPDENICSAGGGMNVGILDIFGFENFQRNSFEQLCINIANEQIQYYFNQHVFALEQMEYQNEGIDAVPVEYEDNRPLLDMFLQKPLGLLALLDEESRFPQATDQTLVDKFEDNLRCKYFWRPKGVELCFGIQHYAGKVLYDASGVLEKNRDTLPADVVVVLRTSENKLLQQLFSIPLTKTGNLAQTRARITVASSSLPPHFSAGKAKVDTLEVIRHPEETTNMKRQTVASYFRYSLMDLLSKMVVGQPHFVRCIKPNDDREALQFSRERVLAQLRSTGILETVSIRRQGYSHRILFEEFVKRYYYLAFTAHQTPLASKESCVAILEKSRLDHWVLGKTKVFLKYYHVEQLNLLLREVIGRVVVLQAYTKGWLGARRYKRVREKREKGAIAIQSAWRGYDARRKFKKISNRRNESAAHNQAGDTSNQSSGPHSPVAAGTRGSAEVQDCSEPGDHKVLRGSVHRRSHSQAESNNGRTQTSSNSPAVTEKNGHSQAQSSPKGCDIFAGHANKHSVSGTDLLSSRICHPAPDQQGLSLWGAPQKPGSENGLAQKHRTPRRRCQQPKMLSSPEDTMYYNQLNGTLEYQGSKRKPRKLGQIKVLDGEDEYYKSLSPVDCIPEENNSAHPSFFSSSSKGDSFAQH
# Non-receptor tyrosine-protein kinase TYK2 (Homo sapiens), sequence (P29597 whole entry, the tested form may be a part): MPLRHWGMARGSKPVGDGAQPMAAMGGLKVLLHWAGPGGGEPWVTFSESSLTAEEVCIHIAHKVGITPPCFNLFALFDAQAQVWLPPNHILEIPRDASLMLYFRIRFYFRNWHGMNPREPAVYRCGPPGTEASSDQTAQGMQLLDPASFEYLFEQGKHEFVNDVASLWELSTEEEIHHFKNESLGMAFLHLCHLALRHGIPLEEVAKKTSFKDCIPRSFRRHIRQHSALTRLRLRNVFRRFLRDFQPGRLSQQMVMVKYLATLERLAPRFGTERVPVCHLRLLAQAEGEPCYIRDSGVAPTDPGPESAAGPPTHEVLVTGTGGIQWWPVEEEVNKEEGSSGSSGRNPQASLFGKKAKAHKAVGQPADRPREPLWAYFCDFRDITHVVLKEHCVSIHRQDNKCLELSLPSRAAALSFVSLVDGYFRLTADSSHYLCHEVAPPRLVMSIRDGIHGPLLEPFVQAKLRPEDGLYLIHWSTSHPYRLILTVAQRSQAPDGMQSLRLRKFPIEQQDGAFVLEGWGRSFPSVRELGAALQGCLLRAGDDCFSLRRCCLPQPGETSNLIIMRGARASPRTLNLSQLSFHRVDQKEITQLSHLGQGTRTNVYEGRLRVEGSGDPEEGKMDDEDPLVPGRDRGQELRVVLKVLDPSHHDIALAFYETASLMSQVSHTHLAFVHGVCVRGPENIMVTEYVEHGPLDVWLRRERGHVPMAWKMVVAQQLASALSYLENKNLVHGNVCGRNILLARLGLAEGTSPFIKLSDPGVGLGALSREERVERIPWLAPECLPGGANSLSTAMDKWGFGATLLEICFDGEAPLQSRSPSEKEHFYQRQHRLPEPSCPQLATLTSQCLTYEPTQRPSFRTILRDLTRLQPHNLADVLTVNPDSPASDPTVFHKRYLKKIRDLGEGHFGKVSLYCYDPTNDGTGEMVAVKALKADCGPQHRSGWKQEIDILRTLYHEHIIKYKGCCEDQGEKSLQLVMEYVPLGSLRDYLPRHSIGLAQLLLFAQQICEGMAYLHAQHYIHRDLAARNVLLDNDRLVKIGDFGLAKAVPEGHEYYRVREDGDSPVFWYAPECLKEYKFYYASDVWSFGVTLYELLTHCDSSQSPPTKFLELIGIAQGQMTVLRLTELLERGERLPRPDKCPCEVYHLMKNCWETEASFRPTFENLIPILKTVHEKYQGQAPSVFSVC
structure (smiles),measurement,setting,value
CCOc1nc(Nc2ccc(C(=O)N3CCOCC3)cc2OC)nc2[nH]ccc12,Activity,[1],98%
same,Activity,[2],97.7%
same,Activity,[3],105%
same,Activity,[4],100%
same,Activity,[5],107%
same,Activity,[6],48.9%
same,Activity,[7],104%
same,Activity,[8],87.7%
same,Activity,[9],99%
same,Activity,[10],97.4%
same,Activity,[11],90.8%
same,Activity,[12],101%
same,Activity,[13],90.4%
same,Activity,[14],95%
same,Activity,[15],96.5%
same,Activity,[16],87.8%
same,Activity,[17],87.5%
same,Activity,[18],86.7%
same,Activity,[19],97.9%
same,Activity,[20],99.6%
same,Activity,[21],87.4%
same,Activity,[22],93.5%
same,Ratio,[23],3.1
same,Activity,[24],110%
same,Activity,[25],90.6%
same,Activity,[26],93.9%
same,Activity,[27],96.5%
